Patent US7838218B2, “Light emitting probes” (priority 2003, dated 2010)

Target: T1, rabbit serum albumin (RSA) (Oryctolagus cuniculus, UniProt P49065)
T1 construct: purchased Sigma (Sigma-Aldrich Chemical Co.)
Assay: Fluorescence emission of probes with rabbit serum albumin as binder
Format: binding
Conditions: pyrene butyric acid excited at 345 nm, FITC at 490 nm; PBS
Description: Fluorescence measurements were made on a Hitachi F-2500 fluorescence spectrophotometer with a 1 cm path length cuvette. Spectra were measured at a rate of 1500 nm/min. Excitation wavelength of 345 nm was used for pyrene and 490 nm for FITC.
Lifetimes were measured on modified IBH machine.
Proteins with hydrophobic pockets could be used as binders. […] The binder is not restricted to proteins. […] The excitation wavelength was 345 nm.

T1 sequence (P49065 25-608): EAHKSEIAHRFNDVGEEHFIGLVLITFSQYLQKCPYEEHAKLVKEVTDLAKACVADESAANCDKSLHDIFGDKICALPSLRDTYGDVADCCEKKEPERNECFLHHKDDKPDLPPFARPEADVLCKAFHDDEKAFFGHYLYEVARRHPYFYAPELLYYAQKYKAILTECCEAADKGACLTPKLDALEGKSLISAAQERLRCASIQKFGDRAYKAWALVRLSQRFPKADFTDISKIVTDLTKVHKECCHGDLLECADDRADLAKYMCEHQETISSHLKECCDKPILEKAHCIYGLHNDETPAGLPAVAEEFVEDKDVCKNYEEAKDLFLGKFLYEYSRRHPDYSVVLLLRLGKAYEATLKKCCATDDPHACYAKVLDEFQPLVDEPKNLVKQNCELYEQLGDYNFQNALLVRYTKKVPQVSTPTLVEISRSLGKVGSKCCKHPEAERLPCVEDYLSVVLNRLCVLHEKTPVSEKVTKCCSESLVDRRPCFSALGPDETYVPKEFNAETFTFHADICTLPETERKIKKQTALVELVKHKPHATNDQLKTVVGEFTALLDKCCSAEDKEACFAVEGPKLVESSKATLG

Compound	effect of RSA on own emission spectrum of the free fluorophore
O=C1OC2(c3ccc(O)cc3Oc3cc(O)ccc32)c2ccc(N=C=S)cc21 [FITC, fluorescein isothiocynate]	appears not to change
c1cc2ccc3cccc4ccc(c1)c2c34 [pyrene butyric acid]	increasing the fluorescence intensity
